Reference: patent publication US20030148264A1, “Phage displayed PDZ domain ligands” (GENENTECH, INC., priority 2001, published 2003)
Read-outs that look alike come from different tables or passages of the source. Where a SMILES comes first, the peptide text is derived from it. Where no end group is shown, it is not given here. [ ]: non-standard residue; d: D form. 2Nal = N[C@@H](Cc1ccc2ccccc2c1)C(=O)O

What was measured:
[1] = molecular target: ERBIN PDZ domain (Homo sapiens, UniProt Q96RT1); assay: Competition ELISA, ERBIN PDZ-GST binding to immobilized biotinylated peptide; set-up: made in house; host or cells: E. coli; details: for fold less potent than Ac-WETWV (SEQ ID NO:225): Alanine scanning of WETWV peptide
Chain of ERBIN PDZ domain (Q96RT1 1258-1412): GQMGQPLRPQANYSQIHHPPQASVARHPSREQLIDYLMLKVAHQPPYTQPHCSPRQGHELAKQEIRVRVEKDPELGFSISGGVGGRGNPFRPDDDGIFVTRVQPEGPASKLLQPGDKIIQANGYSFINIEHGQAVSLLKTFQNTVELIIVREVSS
Method: Binding affinities of the peptides for the ERBIN PDZ domain were determined as IC50 values using competition ELISAs. […] Assay plates were prepared by coating Maxisorp plates overnight at 4° C. with 65 μl of a 2 μg/ml solution of neutravidin in PBS. The plates were then blocked through addition of 65 μl of a 1% solution of bovine serum albumin (BSA) in PBS for 1 hour at room temperature, then washed 10 times with PBS containing 0.05% Tween-20. 65 μl of the amino-terminally biotinylated peptide PDZ 501 (TGWETWV; SEQ ID NO:222) was then added at a concentration of 100 nM in PBS with 0.5% BSA and 0.05% Tween-20 and incubated for 1 hour at room temperature. Simultaneously, binding reactions consisting of serial dilutions of the test compounds in PBS with 0.5% BSA and 0.05% Tween-20 containing 2 μg/ml ERBIN PDZ-GST fusion protein were incubated for 1 hour at room temperature. The plate coated with the immobilized peptide was again washed 10 times before 65 μl of each binding reaction was added to a well and incubated for 15 minutes at room temperature. The plates were again washed 10 times before being developed by incubating for 30 minutes with a 1:1000 dilution of anti-mouse HRP conjugated antibody and a 1:2000 dilution of a mouse anti-GST antibody in PBS with 0.5% BSA and 0.05% Tween-20. The plates were washed 10 times, then incubated with 100 μl HRP substrate for 5 minutes and the color developed through addition of 100 μl of 1 M H3PO4. The plates were read at 450 nm and the absorption fit to a binding curve using a least squares fit.
Binding affinities of the peptides for the ERBIN PDZ domain were determined as IC50 values using competition ELISAs. […] Assay plates were prepared by coating microwell plates overnight with neutravidin. The plates were then blocked through addition of BSA, and then amino-terminally biotinylated WETWV (SEQ ID NO:225) was then bound to the plates. Simultaneously, binding reactions consisting of serial dilutions of the test peptides with ERBIN PDZ-GST fusion proteins were performed. The plate coated with the immobilized WETWV (SEQ ID NO:225) was extensively washed before adding each binding reaction to the wells and briefly incubated. After further washing, anti-mouse HRP conjugated antibody and a mouse anti-GST antibody were added. The plates were then developed with HRP substrate and H3PO4, and then read at 450 nm. The absorption fit to a binding curve using a least squares fit. Thus the ability of the various peptides to inhibit ERBIN PDZ domain from binding its cognate was measured. […]

[2] = molecular target: T1, hZO1 PDZ1 (Homo sapiens, UniProt Q07157); assay: IC50 (nM) | hZO1 PDZ1 | 5 nM | B01-88 | Bio-GGWRWTTWL (SEQ ID NO 684) | 36 nM
T1 construct: Human ZO1 (NM_003257) PDZ1; GST; made in house
T1 sequence (Q07157 23-110): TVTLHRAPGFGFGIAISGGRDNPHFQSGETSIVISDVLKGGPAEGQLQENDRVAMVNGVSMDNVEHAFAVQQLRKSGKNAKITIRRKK
Method: (§1) Table printed on a drawing sheet, Fig. 12
Head of the field: IC50 (nM) | hZO1 PDZ1 | 5 nM | B01-88 | Bio-GGWRWTTWL (SEQ ID NO 684) | 36 nM
(§2) The patent's description of the figure: FIG. 12. IC50 values indicating binding affinities of various peptides to PDZ domains
(§3) First copying reader's note: The first column (three lines per block: protein, accession, PDZ domain) is treated as one cell spanning its block; an empty ruled row above the IC50/SD head is left out; #### cells are spreadsheet overflow marks as printed; several heads and cells are cut off at the left by the print (ample, eptide No, EQ ID NO).
Where the first naming reader finds the target: head: IC50 (nM) | hZO1 PDZ1 | 5 nM | B01-88

[3] = molecular target: T2, Erbin PDZ (Homo sapiens, UniProt Q96RT1); assay: IC50 (nM) | Erbin PDZ | 2 nM | PDZ501 | Bio-Ac-GGWETWV (SEQ ID NO 687) | 37 nM
T2 construct: made in house; host or cells: E. coli
T2 sequence (Q96RT1 1258-1412): as the sequence (Q96RT1 1258-1412) above
Method: as §1, §2, §3
Where the first naming reader finds the target: head: IC50 (nM) | Erbin PDZ | 2 nM | PDZ501

[4] = molecular target: ERBIN PDZ-GST fusion protein (aa. 1217-1371 of SEQ ID NO:201) (human) [GST: P08515]; assay: competition ELISA: ERBIN PDZ-GST binding to immobilized biotin-WETWV
Chain of ERBIN PDZ-GST fusion protein (aa. 1217-1371 of SEQ ID NO:201) (human) [GST: P08515] (P08515 whole entry, the tested form may be a part): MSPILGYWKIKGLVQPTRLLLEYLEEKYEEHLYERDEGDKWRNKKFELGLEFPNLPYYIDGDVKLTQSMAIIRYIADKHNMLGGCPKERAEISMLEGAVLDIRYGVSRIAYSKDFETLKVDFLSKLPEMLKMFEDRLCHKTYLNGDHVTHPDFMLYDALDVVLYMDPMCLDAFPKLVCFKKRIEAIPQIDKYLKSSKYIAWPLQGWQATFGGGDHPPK

[5] = molecular target: GST-MAGI-3 PDZ 2 (aa. 584-707 of SEQ ID NO:200) (human) [GST: P08515]; assay: competition ELISA: peptide blocks GST-PDZ binding to immobilized peptide
Chain of GST-MAGI-3 PDZ 2 (aa. 584-707 of SEQ ID NO:200) (human) [GST: P08515] (P08515 whole entry, the tested form may be a part): as above

[6] = molecular target: ERBIN PDZ-GST fusion protein (aa. 1217-1371 of SEQ ID NO:201) (human, UniProt P08515 1-218 = GST); assay: competition ELISA: ERBIN PDZ-GST binding to immobilized biotin-WETWV
Chain of ERBIN PDZ-GST fusion protein (aa. 1217-1371 of SEQ ID NO:201) (P08515 whole entry, the tested form may be a part): as above

[7] = ERBIN peptide truncations with N-terminal acylation
[8] = ERBIN peptide truncations with N-terminal acylation, read-out: IC50
[9] = Substitutions for tryptophan at the −1 position
[10] = ERBIN peptide truncations without N-terminal acylation
[11] = ERBIN peptide truncations without N-terminal acylation, read-out: IC50
[12] = Small molecules that inhibit ERBIN PDZ domain from binding immobilized WETWV, read-out: IC50
[13] = Substitutions for threonine at the −2 position and glutamate at the −3 position

## CC(=O)N[C@@H](CCC(=O)O)C(=O)N[C@H](C(=O)N[C@@H](Cc1c[nH]c2ccccc12)C(=O)N[C@H](C(=O)O)C(C)C)[C@@H](C)O [Ac-ETWV] (Ac-ETWV-OH; C-terminus assumed)
[1]; [7]
  fold less potent than Ac-GWETWV: 5.1 fold
[1]; [8]
  IC50: 4.9 µM

## CC(=O)N[C@@H](Cc1c[nH]c2ccccc12)C(=O)N[C@@H](CCC(=O)O)C(=O)N[C@H](C(=O)N[C@@H](Cc1ccc2ccccc2c1)C(=O)N[C@H](C(=O)O)C(C)C)[C@@H](C)O [Ac-WETNapV] (Ac-WET[2Nal]V-OH; C-terminus assumed)
[1]
  IC50: 0.6 µM
[1]; [9]
  fold less potent than Ac-WETWV: 1.1 fold

## CC(=O)N[C@@H](Cc1c[nH]c2ccccc12)C(=O)N[C@H](C(=O)O)C(C)C [Ac-WV] (Ac-Trp-Val-OH; C-terminus assumed)
[1]; [7]
  fold less potent than Ac-GWETWV: 78.7 fold
[1]; [8]
  IC50: 77.8 µM

## CC(C)[C@H](NC(=O)[C@H](Cc1c[nH]c2ccccc12)NC(=O)[C@@H](NC(=O)[C@@H](N)CCC(=O)O)[C@@H](C)O)C(=O)O [H1N -ETWV] (H-ETWV-OH; C-terminus assumed)
[1]; [10]
  fold less potent than H1N -GWETWV: 11.5 fold
[1]; [11]
  IC50: 16.5 µM

## CC(C)[C@H](NC(=O)[C@H](Cc1c[nH]c2ccccc12)NC(=O)[C@@H](N)[C@@H](C)O)C(=O)O [H1N -TWV] (H-Thr-Trp-Val-OH; C-terminus assumed)
[1]; [10]
  fold less potent than H1N -GWETWV: 73.6 fold
[1]; [11]
  IC50: 105 µM

## CC(C)C(NC(=O)C(Cc1cc2ccccc2[nH]1)NC(=O)C1CCc2ccccc2C1)C(=O)O (stereo not shown) [WV 38]
[1]; [12]
  IC50: 304 µM

## CC(C)C(NC(=O)C(Cc1cc2ccccc2[nH]1)NC(=O)c1cnc2ccccc2n1)C(=O)O (stereo not shown) [WV 46]
[1]; [12]
  IC50: 334 µM

## CC(C)C(NC(=O)C(Cc1cc2ccccc2[nH]1)NC(=O)c1ccc(-c2ccc([N+](=O)[O-])cc2)o1)C(=O)O (stereo not shown) [WV 58]
[1]; [12]
  IC50: 697 µM

## CC(C)C(NC(=O)C(Cc1cc2ccccc2[nH]1)NC(=O)c1cc2ccccc2[nH]1)C(=O)O (stereo not shown) [WV 66]
[1]; [12]
  IC50: 549 µM

## Ac-AETWV [Ac-AETWV]
[1]
  IC50: 4 µM
  fold less potent than Ac-WETWV (SEQ ID NO:225): 8.2 fold

## Ac-ERIWFV [29 | 01-24, SEQ ID NO 668 NAC-ERIWFV]
[2]
  IC50: 21400 nM

## Ac-FETWL [3 | 01-08, SEQ ID NO 642 N^AC-FETWL]
[3]
  IC50: 3160 nM

## Ac-GWETWV [Ac-GWETWV]
[1]
  IC50: 0.9 µM
[1]; [7]
  fold less potent than Ac-GWETWV: 1.0 fold

## Ac-KETWL [20 | 01-05, SEQ ID NO 659 N^AC-KETWL]
[2]
  IC50: 12600 nM
[3]
  IC50: 19800 nM

## Ac-KITWL [25 | 01-06, SEQ ID NO 664 N^AC-KITWL]
[2]
  IC50: 2320 nM

## Ac-KSTWL [23 | 01-03, SEQ ID NO 662 N^AC-KSTWL]
[2]
  IC50: 5310 nM

## Ac-KTSTSYV [14 | 01-97, SEQ ID NO 653 N^AC-KTSTSYV]
[2]
  IC50: 2030 nM

## Ac-RETWL [22 | 01-02, SEQ ID NO 661 N^AC-RETWL]
[2]
  IC50: 28600 nM
[3]
  IC50: 39700 nM

## Ac-TWY (peptide)
[4]
  IC50: 77.4 µM
  fold less potent than Ac-GWETWV: 81.5 fold

## Ac-WATWV [Ac-WATWV]
[1]
  IC50: 14.8 µM
  fold less potent than Ac-WETWV (SEQ ID NO:225): 30.3 fold

## Ac-WDTWV [Ac-WDTWV]
[1]
  IC50: 1.7 µM
[1]; [13]
  fold less potent than Ac-WETWV: 3.4 fold

## Ac-WEAWV [Ac-WEAWV]
[1]
  IC50: 12.4 µM
  fold less potent than Ac-WETWV (SEQ ID NO:225): 25.3 fold

## Ac-WELLI [38 | 01-21, SEQ ID NO 677 NAC-WELLI]
[2]
  IC50: 20100 nM

## Ac-WESWV [Ac-WESWV]
[1]
  IC50: 2.5 µM
[1]; [13]
  fold less potent than Ac-WETWV: 5.2 fold

## Ac-WETAV [Ac-WETAV]
[1]
  IC50: 34 µM
  fold less potent than Ac-WETWV (SEQ ID NO:225): 69.3 fold
[1]; [9]
  fold less potent than Ac-WETWV: 69.3 fold

## Ac-WETFV [Ac-WETFV]
[1]
  IC50: 14.5 µM
[1]; [9]
  fold less potent than Ac-WETWV: 295 fold

## Ac-WETNapV (peptide)
[4]
  IC50: 0.6 µM
  fold less potent than Ac-WETWV: 1.1 fold

## Ac-WETWV [Ac-WETWV]
[1]
  IC50: 0.5 µM
  fold less potent than Ac-WETWV (SEQ ID NO:225): 1 fold
[1]; [7]
  fold less potent than Ac-GWETWV: 0.5 fold
[1]; [13]
  fold less potent than Ac-WETWV: 1 fold
[1]; [9]
  fold less potent than Ac-WETWV: 1 fold

## Ac-WETYV [Ac-WETYV]
[1]
  IC50: 42.5 µM
[1]; [9]
  fold less potent than Ac-WETWV: 86.7 fold

## Ac-WEVWV [Ac-WEVWV]
[1]
  IC50: 4.8 µM
[1]; [13]
  fold less potent than Ac-WETWV: 9.8 fold

## Ac-WGWTTWL [12 | 01-30, EQ ID NO 651 N^AC-WGWTTWL]
[2]
  IC50: 47 ± 4 nM
[3]
  IC50: 35500 nM

## Ac-WRHTTWL [11 | 01-29, EQ ID NO 650 N^AC-WRHTTWL]
[2]
  IC50: 35 ± 5 nM
[3]
  IC50: 52400 nM

## Ac-WV (peptide)
[4]
  IC50: 77.8 µM
  fold less potent than Ac-GWETWV: 78.7 fold

## Ac-YRLNDYV [18 | 01-98, SEQ ID NO 657 N^AC-YRLNDYV]
[2]
  IC50: 28600 nM

## Ac-YSLTGYV [15 | 01-94, SEQ ID NO 654 N^AC-YSLTGYV]
[2]
  IC50: 12400 nM

## Ac-YSRSQYV [16 | 01-95, SEQ ID NO 655 N^AC-YSRSQYV]
[2]
  IC50: 4620 nM

## GCGCSWV (peptide)
[5]
  IC50: 2 µM

## H1N -TWV (peptide)
[4]
  IC50: 105 µM
  fold less potent than H1N -GWETWV: 73.6 fold

## H-GWETWV [H1N-GWETWV]
[1]
  IC50: 1.4 µM
[1]; [10]
  fold less potent than H1N -GWETWV: 1.0 fold

## H-WETWV [H1N -WETWV]
[1]
  IC50: 0.2 µM
[1]; [10]
  fold less potent than H1N -GWETWV: 0.2 fold

## HTQITKV (peptide)
[5]
  IC50: 200 µM

## HTQITWV (peptide)
[5]
  IC50: 0.3 µM

## Ac-WETWV [Ac-WETWV]
[4]
  IC50: 0.5 µM
  fold less potent than Ac-GWETWV: 0.5 fold
  fold less potent than Ac-WETWV: 1 fold

## Ac-ETWV [Ac-ETWV]
[4]
  IC50: 4.9 µM
  fold less potent than Ac-GWETWV: 5.1 fold

## H-GWETWV-OH [H1N-GWETWV]
[4]
  IC50: 1.4 µM
  fold less potent than H1N -GWETWV: 1 fold

## H-WETWV-OH [H1N -WETWV]
[4]
  IC50: 0.2 µM
  fold less potent than H1N -GWETWV: 0.2 fold

## H-ETWV-OH [H1N -ETWV]
[4]
  IC50: 16.5 µM
  fold less potent than H1N -GWETWV: 11.5 fold

## Ac-GWETWV [Ac-GWETWV]
[4]
  IC50: 0.9 µM
  fold less potent than Ac-GWETWV: 1 fold

## Ac-AETWV [Ac-AETWV]
[6]
  IC50: 4 µM
  fold less potent than Ac-WETWV: 8.2 fold

## Ac-WATWV [Ac-WATWV]
[6]
  IC50: 14.8 µM
  fold less potent than Ac-WETWV: 30.3 fold

## Ac-WEAWV [Ac-WEAWV]
[6]
  IC50: 12.4 µM
  fold less potent than Ac-WETWV: 25.3 fold
